What was measured:
[1] = tested on: 5′-Cy5-labeled dsDNA substrates; experiment: In vitro TPRT (prime editing) primer extension assay, denaturing urea PAGE; format: biochemical; conditions: non-nicked substrate, standard gRNA (gRNA_0, lane 3)
Procedure: All reactions are with M-MLV RT.
Then, the fluorescently labeled DNA substrate was added along with dNTPs and the RT enzyme. After 1 hour of incubation at 37° C., the reaction products were analyzed by denaturing urea-polyacrylamide gel electrophoresis (PAGE).
However, the DNA substrates are not pre-nicked in this set of experiments. […] The reaction products were analyzed by denaturing urea-polyacrylamide gel electrophoresis (PAGE).
Reactions were incubated at 37° C. for 1 hour, then analyzed by denaturing urea PAGE and visualized for Cy5 fluorescence.
Reactions were allowed to proceed at 37° C. for 1 hour prior to separation by denaturing urea PAGE and visualization by Cy5 fluorescence.

[2] = tested on: different target sites in various cell lines; experiment: Efficiency of prime editors with truncated RT; format: cell-based
From the text: FIG. 75 provides a bar graph comparing the efficiency (i.e., “% of total sequencing reads with the specified edit or indels”) of PE2, PE2-trunc, PE3, and PE3-trunc over different target sites in various cell lines.
See FIG. 75, which provides a bar graph comparing the efficiency (i.e., “% of total sequencing reads with the specified edit or indels”) of PE2, PE2-trunc, PE3, and PE3-trunc over different target sites in various cell lines.

HEK cells = experiment: Npu intein-split prime editors, plasmid transfection, high-throughput sequencing; format: cell-based; conditions: HEK cells transfected with plasmids
From the text: This Example is focused on a PE fusion protein comprising the canonical SpCas9 (SEQ ID NO: 18). The split sites for other Cas9 proteins may be the corresponding same site, or may need to be optimized for each different Cas9 protein. In the instant Example, the prime editor was split between residues 1023 and 1024 of SpCas9 (SEQ ID NO: 18). This is referred to as the “1023/1024” split site.
Prime editors (PEs) exceed the AAV packaging capacity.
It was therefore determined whether mutation from the Cas9-native “SEQ” towards the Npu intein “CFN” sequence altered efficiency of prime editing.
Although associated, unspliced editors may be active, perturbations of the sterics of the prime editor resulting from incomplete splicing during initiation steps may affect editing outcomes.

Molecule: Cas9 nickase: Cas9 nickase (SpyCas9 H840A mutant)
- cleavage of the DNA strand [1]: efficiently cleaves the DNA strand

Molecule: PE2-trunc: Cas9 (H840A) fused to a truncated M-MLV reverse transcriptase with D200N, T306K, W313F, T330P; SEQ ID NO: 765
- efficiency (% of total sequencing reads with the specified edit or indels) [2]: about as efficient as the prime editors comprising the non-truncated RT proteins

B1: 1024-CFN: intein-split PE with Cas9 residues at 1024 mutated to the Npu intein CFN sequence (protein)
chain: MKRTADGSEFESPKKKRKVIKIATRKYLGKQNVYDIGVERDHNFALKNGFIASNCFNEIGKATAKYFFYSNIMNFFKTEITLANGEIRKRPLIETNGETGEIVWDKGRDFATVRKVLSMPQVNIVKKTEVQTGGFSKESILPKRNSDKLIARKKDWDPKKYGGFDSPTVAYSVLVVAKVEKGKSKKLKSVKELLGITIMERSSFEKNPIDFLEAKGYKEVKKDLIIKLPKYSLFELENGRKRMLASAGELQKGNELALPSKYVNFLYLASHYEKLKGSPEDNEQKQLFVEQHKHYLDEIIEQISEFSKRVILADANLDKVLSAYNKHRDKPIREQAENIIHLFTLTNLGAPAAFKYFDTTIDRKRYTSTKEVLDATLIHQSITGLYETRIDLSQLGGDSGGSSGGSSGSETPGTSESATPESSGGSSGGSSTLNIEDEYRLHETSKEPDVSLGSTWLSDFPQAWAETGGMGLAVRQAPLIIPLKATSTPVSIKQYPMSQEARLGIKPHIQRLLDQGILVPCQSPWNTPLLPVKKPGTNDYRPVQDLREVNKRVEDIHPTVPNPYNLLSGLPPSHQWYTVLDLKDAFFCLRLHPTSQPLFAFEWRDPEMGISGQLTWTRLPQGFKNSPTLFNEALHRDLADFRIQHPDLILLQYVDDLLLAATSELDCQQGTRALLQTLGNLGYRASAKKAQICQKQVKYLGYLLKEGQRWLTEARKETVMGQPTPKTPRQLREFLGKAGFCRLFIPGFAEMAAPLYPLTKPGTLFNWGPDQQKAYQEIKQALLTAPALGLPDLTKPFELFVDEKQGYAKGVLTQKLGPWRRPVAYLSKKLDPVAAGWPPCLRMVAAIAVLTKDAGKLTMGQPLVILAPHAVEALVKQPPDRWLSNARMTHYQALLLDTDRVQFGPVVALNPATLLPLPEEGLQHNCLDILAEAHGTRPDLTDQPLPDADHTWYTDGSSLLQEGQRKAGAAVTTETEVIWAKALPAGTSAQRAELIALTQALKMAEGKKLNVYTDSRYAFATAHIHGEIYRRRGWLTSEGKEIKNKDEILALLKALFLPKRLSIIHCPGHQKGHSAEARGNRMADQAARKAAITETPDTSTLLIENSSPSGGSKRTADGSEFEPKKKRK
- prime editing activity compared with full-length PE3 (HEK cells): recapitulates full-length PE3 activity

From patent US12624354B2, “Methods and compositions for prime editing nucleotide sequences” (The Broad Institute, Inc., priority 2019, dated 2026)
